Results taken from patent US20120178766A1, “FUROPYRIMIDINEDIONE DERIVATIVES AS TRPAI MODULATORS” (priority 2009, published 2012).

Columns and labels:
human TRPA1 = biological target: T1, human TRPA1 (Homo sapiens, UniProt O75762); experiment: 45Calcium uptake assay: inhibition of AITC induced cellular uptake of radioactive calcium, human TRPA1 expressing CHO cells; assay type: cell-based; details: AITC 30 μM; for inhibition at 1 µM: 1.0 μM compound, read-out: human TRPA1 Percentage inhibition at 1.0 μM; for inhibition at 10 µM: 10.0 μM compound, read-out: human TRPA1 Percentage inhibition at 10.0 μM
T1 construct: expressed in transfected cells; host or cells: CHO cells (G-418 selection)
T1 sequence (O75762 whole entry): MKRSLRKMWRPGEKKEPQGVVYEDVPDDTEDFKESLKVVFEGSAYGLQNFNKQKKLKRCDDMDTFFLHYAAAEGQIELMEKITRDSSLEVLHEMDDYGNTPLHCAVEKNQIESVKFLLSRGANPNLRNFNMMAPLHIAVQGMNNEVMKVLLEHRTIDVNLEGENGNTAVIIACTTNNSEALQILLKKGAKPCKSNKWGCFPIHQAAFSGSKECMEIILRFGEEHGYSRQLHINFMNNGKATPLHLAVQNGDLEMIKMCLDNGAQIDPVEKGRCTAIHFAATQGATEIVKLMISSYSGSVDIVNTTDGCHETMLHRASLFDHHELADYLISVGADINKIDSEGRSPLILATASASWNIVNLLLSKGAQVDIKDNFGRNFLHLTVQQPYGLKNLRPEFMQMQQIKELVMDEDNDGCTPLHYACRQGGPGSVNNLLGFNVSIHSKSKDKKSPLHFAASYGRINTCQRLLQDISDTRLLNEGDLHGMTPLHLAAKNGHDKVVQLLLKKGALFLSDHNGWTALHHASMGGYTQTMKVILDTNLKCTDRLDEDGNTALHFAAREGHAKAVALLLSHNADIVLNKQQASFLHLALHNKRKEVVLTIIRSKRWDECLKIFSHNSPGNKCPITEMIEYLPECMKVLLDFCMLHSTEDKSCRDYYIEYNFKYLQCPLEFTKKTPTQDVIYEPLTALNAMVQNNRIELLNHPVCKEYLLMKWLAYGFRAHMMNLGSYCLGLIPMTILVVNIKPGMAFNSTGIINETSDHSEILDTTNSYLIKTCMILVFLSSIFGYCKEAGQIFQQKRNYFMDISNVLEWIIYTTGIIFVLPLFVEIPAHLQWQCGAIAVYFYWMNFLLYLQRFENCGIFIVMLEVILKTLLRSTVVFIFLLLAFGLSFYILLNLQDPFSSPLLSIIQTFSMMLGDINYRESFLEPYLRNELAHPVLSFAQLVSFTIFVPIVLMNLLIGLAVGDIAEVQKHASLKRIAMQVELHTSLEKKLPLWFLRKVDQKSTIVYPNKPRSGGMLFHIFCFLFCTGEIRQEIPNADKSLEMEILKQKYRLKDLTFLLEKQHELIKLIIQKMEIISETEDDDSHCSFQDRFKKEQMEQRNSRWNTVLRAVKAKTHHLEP
From the text: The illustrative examples of the present invention are screened for TRPA1 activity according to a modified procedure described in (a) Tóth, A. et al. Life Sciences, 2003, 73, 487-498. (b) McNamara C, R. et al, Proc. Natl. Acad. Sci. U.S.A., 2007, 104, 13525-13530. The screening of the compounds can be carried out by other methods and procedures known to persons skilled in the art.
(§1) Screening for TRPA1 Antagonist Using the ^45Calcium Uptake Assay:
(§2) The inhibition of TRPA1 receptor activation was measured as inhibition of allyl isothiocyanate (AITC) induced cellular uptake of radioactive calcium.
Test compounds were dissolved in 100% DMSO to prepare 10 mM stock and then diluted using plain medium with 0.1% BSA and 1.8 mM CaCl2 to get the desired concentration. The final concentration of DMSO in the reaction was 0.5% (v/v). Human TRPA1 expressing CHO cells were grown in F-12 DMEM medium with 10% FBS, 1% penicillin-streptomycin solution, and 400 μg/ml of G-418. Rat TRPA1 expressing CHO cells were grown in F-12 DMEM medium with 10% FBS, 1% penicillin-streptomycin solution, and 400 μg/ml of Zeocin. Cells were seeded 24 h prior to the assay in 96 well plates so as to get ˜50,000 cells per well on the day of experiment. Cells were treated with the test compounds for 10 minutes followed by the addition of AITC at a final concentration of 30 μM (for human TRPA1) and/or 10 μM (for rat TRPA1) and 5 μCi/ml ^45Ca^+2 for 3 minutes. Cells were washed and lysed using a buffer containing 1% Triton X-100, 0.1% deoxycholate and 0.1% SDS. Radioactivity in the lysate was measured in a Packard TopCount after addition of liquid scintillant. (Toth et al, Life Sciences (2003) 73, 487-498; McNamara C R et al, Proceedings of the National Academy of Sciences, (2007) 104, 13525-13530).
(§3) Concentration response curves were plotted as a % of maximal response obtained in the absence of test antagonist. IC50 values can be calculated from concentration response curve by nonlinear regression analysis using GraphPad PRISM software.

rat TRPA1 = biological target: T2, rat TRPA1 (Rattus norvegicus, UniProt Q6RI86); experiment: 45Calcium uptake assay: inhibition of AITC induced cellular uptake of radioactive calcium, rat TRPA1 expressing CHO cells; assay type: cell-based; details: AITC 10 μM; for inhibition at 10 µM: 10.0 μM compound, read-out: rat TRPA1 Percentage inhibition at 10.0 μM; for inhibition at 1 µM: read-out: rat TRPA1 Percentage inhibition; for IC50: class symbols
T2 construct: expressed in transfected cells; host or cells: CHO cells (Zeocin selection)
T2 sequence (Q6RI86 whole entry): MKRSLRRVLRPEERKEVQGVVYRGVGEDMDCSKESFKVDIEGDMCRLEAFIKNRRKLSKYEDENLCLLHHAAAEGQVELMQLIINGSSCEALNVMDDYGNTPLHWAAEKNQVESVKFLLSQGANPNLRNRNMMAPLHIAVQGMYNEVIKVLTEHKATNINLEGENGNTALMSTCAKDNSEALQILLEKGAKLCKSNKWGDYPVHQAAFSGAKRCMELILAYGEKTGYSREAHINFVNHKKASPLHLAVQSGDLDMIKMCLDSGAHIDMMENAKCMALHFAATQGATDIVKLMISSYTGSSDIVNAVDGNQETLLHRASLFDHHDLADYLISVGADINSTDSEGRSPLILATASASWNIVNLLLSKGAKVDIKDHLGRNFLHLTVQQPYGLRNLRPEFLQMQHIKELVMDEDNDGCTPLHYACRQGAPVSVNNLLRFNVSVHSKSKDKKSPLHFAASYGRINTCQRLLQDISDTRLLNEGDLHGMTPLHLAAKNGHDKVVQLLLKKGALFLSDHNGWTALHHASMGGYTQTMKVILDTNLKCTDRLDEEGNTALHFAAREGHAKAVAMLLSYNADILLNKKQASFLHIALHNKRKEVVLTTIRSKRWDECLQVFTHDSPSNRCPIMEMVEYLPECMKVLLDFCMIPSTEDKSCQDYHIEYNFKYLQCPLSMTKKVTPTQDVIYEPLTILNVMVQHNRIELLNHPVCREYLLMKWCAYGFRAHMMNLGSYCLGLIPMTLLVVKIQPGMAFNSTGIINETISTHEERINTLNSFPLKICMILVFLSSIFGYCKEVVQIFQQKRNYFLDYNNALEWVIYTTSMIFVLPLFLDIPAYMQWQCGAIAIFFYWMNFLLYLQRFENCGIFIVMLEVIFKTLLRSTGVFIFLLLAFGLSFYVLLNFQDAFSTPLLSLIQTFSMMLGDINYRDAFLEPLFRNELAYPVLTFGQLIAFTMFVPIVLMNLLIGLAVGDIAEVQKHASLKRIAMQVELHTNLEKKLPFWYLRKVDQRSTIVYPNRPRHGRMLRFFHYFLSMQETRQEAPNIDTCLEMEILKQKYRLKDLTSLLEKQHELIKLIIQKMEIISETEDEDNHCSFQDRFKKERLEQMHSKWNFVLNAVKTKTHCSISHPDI
Experimental: as §1, §2
Test compounds were dissolved in 100% DMSO to prepare 10 mM stock and then diluted using plain medium with 0.1% BSA and 1.8 mM CaCl2 to get the desired concentration. The final concentration of DMSO in the reaction was 0.5% (v/v). […] Rat TRPA1 expressing CHO cells were grown in F-12 DMEM medium with 10% FBS, 1% penicillin-streptomycin solution, and 400 μg/ml of Zeocin. […] Cells were treated with the test compounds for 10 minutes followed by the addition of AITC at a final concentration of 30 μM (for human TRPA1) and/or 10 μM (for rat TRPA1) and 5 μCi/ml ^45Ca^+2 for 3 minutes. Cells were washed and lysed using a buffer containing 1% Triton X-100, 0.1% deoxycholate and 0.1% SDS. Radioactivity in the lysate was measured in a Packard TopCount after addition of liquid scintillant.
as §3

inhibition at 1 µM (human TRPA1) [%]	inhibition at 10 µM (human TRPA1) [%]	IC50 (human TRPA1; class symbols) [µM]	inhibition at 10 µM (rat TRPA1) [%]	inhibition at 1 µM (rat TRPA1) [%]	IC50 (rat TRPA1) [µM]	IC50 (human TRPA1; numeric values) [µM]	Compound
100	99.5	< 0.05	99.2	71	< 0.05	–	Cn1c(=O)c2c(CC(=O)Nc3nc(-c4cc(F)c(OCC(C)(C)C)c(Cl)c4)cs3)coc2n(C)c1=O [Example 44, N1-{4-[3-Chloro-5-fluoro-4-(2,2-dimethylpropoxy)phenyl]-1,3-thiazol-2-yl}-2-(1,3-dimethyl-2,4-dioxo-1,2,3,4-tetrahydrofuro[2,3-d]pyrimidin-5-yl)acetamide]
–	–	< 0.05	99.8	99.8	0.05 to 0.1	–	Cc1oc2c(c1CC(=O)Nc1nc(-c3cc(Cl)cc(C(F)(F)F)c3)cs1)c(=O)n(C)c(=O)n2C [Example 65, N1-{4-[3-Chloro-5-(trifluoromethyl)phenyl]-1,3-thiazol-2-yl}-2-(1,3,6-trimethyl-2,4-dioxo-1,2,3,4-tetrahydrofuro[2,3-d]pyrimidin-5-yl)acetamide]
99.8	99.5	< 0.05	100	85.2	< 0.05	–	Cn1c(=O)c2c(CC(=O)Nc3nc(-c4ccc(OCC(F)(F)F)c(Br)c4)cs3)coc2n(C)c1=O [Example 32, N1-{4-[3-Bromo-4-(2,2,2-trifluoroethoxy)phenyl]-1,3-thiazol-2-yl}2-(1,3-dimethyl-2,4-dioxo-1,2,3,4-tetrahydrofuro[2,3-d]pyrimidin-5-yl)acetamide]
99.4	99.7	< 0.05	100	100	< 0.05	–	Cn1c(=O)c2c(CC(=O)Nc3nc(-c4ccc(C(F)(F)F)c(F)c4)cs3)coc2n(C)c1=O [Example 14, N1-{4-[3-Fluoro-4-(trifluoromethyl)phenyl]-1,3-thiazol-2-yl}-2-(1,3-dimethyl-2,4-dioxo-1,2,3,4-tetrahydrofuro[2,3-d]pyrimidin-5-yl)acetamide]
–	–	< 0.05	100	100	> 0.1	–	Cc1oc2c(c1CC(=O)Nc1nc(-c3ccc(OC(F)F)c(Cl)c3)cs1)c(=O)n(C)c(=O)n2C [Example 72, N1-{4-[3-Chloro-4-(difluoromethoxy)phenyl]-1,3-thiazol-2-yl}-2-(1,3,6-trimethyl-2,4-dioxo-1,2,3,4-tetrahydrofuro[2,3-d]pyrimidin-5-yl)acetamide]
98.5	99.2	< 0.05	98.6	100	< 0.05	–	Cn1c(=O)c2c(CC(=O)Nc3nc(-c4ccc(F)c(OC(F)(F)F)c4)cs3)coc2n(C)c1=O [Example 16, N1-{4-[4-Fluoro-3-(trifluoromethoxy)phenyl]-1,3-thiazol-2-yl}-2-(1,3-dimethyl-2,4-dioxo-1,2,3,4-tetrahydrofuro[2,3-d]pyrimidin-5-yl)acetamide]
99.9	100	< 0.05	99.8	97.7	0.05 to 0.1	–	Cn1c(=O)c2c(CC(=O)Nc3nc(-c4ccc(OC(F)(F)F)c(F)c4)cs3)coc2n(C)c1=O [Example 17, N1-{4-[3-Fluoro-4-(trifluoromethoxy)phenyl]-1,3-thiazol-2-yl}-2-(1,3-dimethyl-2,4-dioxo-1,2,3,4-tetrahydrofuro[2,3-d]pyrimidin-5-yl)acetamide]
94.2	98.7	< 0.05	–	–	> 0.1	–	Cn1c(=O)c2c(CC(=O)Nc3nc(-c4cc(F)c(OCC5CC5)c(F)c4)cs3)coc2n(C)c1=O [Example 39, N1-{4-[4-(Cyclopropylmethoxy)-3,5-difluorophenyl]-1,3-thiazol-2-yl]-2-(1,3-dimethyl-2,4-dioxo-1,2,3,4-tetrahydrofuro[2,3-d]pyrimidin-5-yl)acetamide]
–	–	–	94.8	94.5	–	0.0345	Cc1oc2c(c1CC(=O)Nc1nc(-c3ccc(F)c(Cl)c3F)cs1)c(=O)n(C)c(=O)n2C [Example 78, N1-[4-(3-Chloro-2,4-difluorophenyl)-1,3-thiazol-2-yl]-2-(1,3,6-trimethyl-2,4-dioxo-1,2,3,4-tetrahydrofuro[2,3-d]pyrimidin-5-yl)acetamide]
96.1	99.9	< 0.05	–	–	< 0.05	–	Cn1c(=O)c2c(CC(=O)Nc3nc(-c4cc(F)c(OCC(C)(C)C)c(F)c4)cs3)coc2n(C)c1=O [Example 42, N1-{4-[3,5-Difluoro-4-(2,2-dimethylpropoxy)phenyl]-1,3-thiazol-2-yl}2-(1,3-dimethyl-2,4-dioxo-1,2,3,4-tetrahydrofuro[2,3-d]pyrimidin-5-yl)acetamide]
96.7	99.3	> 0.1	100	98.5	–	–	Cn1c(=O)c2c(CC(=O)Nc3nc(-c4ccc(OCC(C)(C)C)c(Br)c4)cs3)coc2n(C)c1=O [Example 28, N1-{4-[3-Bromo-4-(2,2-dimethylpropoxy)phenyl]-1,3-thiazol-2-yl}-2-(1,3-dimethyl-2,4-dioxo-1,2,3,4-tetrahydrofuro[2,3-d]pyrimidin-5-yl)acetamide]
99.2	99.7	< 0.05	100	89.2	0.05 to 0.1	–	Cn1c(=O)c2c(CC(=O)Nc3nc(-c4cc(Cl)c(OCC(C)(C)C)c(Cl)c4)cs3)coc2n(C)c1=O [Example 43, N1-{4-[3,5-Dichloro-4-(2,2-dimethylpropoxy)phenyl]-1,3-thiazol-2-yl}-2-(1,3-dimethyl-2,4-dioxo-1,2,3,4-tetrahydrofuro[2,3-d]pyrimidin-5-yl)acetamide]
–	–	–	–	–	0.05 to 0.1	0.0185	Cc1oc2c(c1CC(=O)Nc1nc(-c3cc(F)c(F)cc3F)cs1)c(=O)n(C)c(=O)n2C [Example 75, N1-[4-(2,4,5-Trifluorophenyl)-1,3-thiazol-2-yl]-2-(1,3,6-trimethyl-2,4-dioxo-1,2,3,4-tetrahydrofuro[2,3-d]pyrimidin-5-yl)acetamide]
99.7	97.3	–	100	100	–	–	Cc1oc2c(c1CC(=O)Nc1nc(-c3ccc(OC(F)(F)F)cc3)cs1)c(=O)n(C)c(=O)n2C [Example 53, N1-{4-[4-(Trifluoromethoxy)phenyl]-1,3-thiazol-2-yl}-2-(1,3,6-trimethyl-2,4-dioxo-1,2,3,4-tetrahydrofuro[2,3-d]pyrimidin-5-yl)acetamide]
–	–	< 0.05	–	–	< 0.05	–	Cc1oc2c(c1CC(=O)Nc1nc(-c3ccc(Cl)c(C(F)(F)F)c3)cs1)c(=O)n(C)c(=O)n2C [Example 64, N1-{4-[4-Chloro-3-(trifluoromethyl)phenyl]-1,3-thiazol-2-yl}-2-(1,3,6-trimethyl-2,4-dioxo-1,2,3,4-tetrahydrofuro[2,3-d]pyrimidin-5-yl)acetamide]

Compound	inhibition at 1 µM (human TRPA1) [%]	inhibition at 10 µM (human TRPA1) [%]	IC50 (human TRPA1; class symbols) [µM]	inhibition at 10 µM (rat TRPA1) [%]	inhibition at 1 µM (rat TRPA1) [%]	IC50 (rat TRPA1) [µM]	IC50 (human TRPA1; numeric values) [µM]
CC(C)COc1c(F)cc(-c2csc(NC(=O)Cc3coc4c3c(=O)n(C)c(=O)n4C)n2)cc1F [Example 40, N1-{4-(3,5-Difluoro-4-isobutoxyphenyl)-1,3-thiazol-2-yl}2-(1,3-dimethyl-2,4-dioxo-1,2,3,4-tetrahydrofuro[2,3-d]pyrimidin-5-yl)acetamide]	93.2	99.2	< 0.05	99.6	99.2	< 0.05	–
